Laboratory results published in US20050009124A1, “Assays for detection of phosphoinositide kinase and phosphatase activity” (Echelon Biosciences Incorporated, priority 2001, published 2005).

What was measured:
recombinant PI 3-Kinaseα = recombinant PI 3-Kinaseα (Homo sapiens, UniProt P42336); assay: Competitive FP assay for PI 3-Kinase activity; type: biochemical; details: substrate conversion at constant enzyme levels
Description: The FP assays developed for the detection of PI 3-Kinase and SHIP2 activity were designed as competitive assays in which the enzyme product would compete with a fluorescently labeled synthetic phosphoinositide or inositol phosphate tracer for binding to a specific phosphoinositide binding protein. As the products of the enzymatic reaction increase, the soluble phosphoinositide products compete for the interaction of the binding protein and the fluorescent tracer, leading to a decrease in mP values as the amount of depolarized free tracer increases. Thus, changes in polarization should be inversely proportional to the degree of enzyme activity.
These assays involve four steps. First, the enzyme and substrate phosphoinositide are combined in an appropriate reaction buffer and the reaction is allowed to proceed. […] Finally, polarization values are measured to determine the extent of enzyme activity in the reaction.
The ability of FP competitive assays to detect the production of phosphoinositide products of PI 3-Kinaseα activity was tested using recombinant PI 3-Kinaseα. […] The production of PI(3,4,5)P3 was detected as a decrease in mP values as enzyme products compete with I(1,3,4,5)P4-BODIPY®-TMR for interaction with the binding protein.

GST-GRP1-PH = molecular target: T1, GST-GRP1-PH (Homo sapiens, UniProt O43739); assay: Competitive FP assay, displacement of fluorescent tracer from GST-GRP1-PH; type: binding; details: amounts over 100-fold greater than PI(3,4,5)P3
T1 construct: The PH domain of GRP1 (general receptor for phosphoinositides) was used as a detector for PI(3,4,5)P3
T1 sequence (O43739 264-381 limits assumed): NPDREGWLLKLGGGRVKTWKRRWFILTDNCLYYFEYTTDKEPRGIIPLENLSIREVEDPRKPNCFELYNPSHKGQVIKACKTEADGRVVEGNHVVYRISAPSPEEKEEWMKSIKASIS
Method: In order to use these reagents in a competitive FP assay, unlabeled phosphoinositide products of an enzymatic reaction must be able to successfully compete with the labeled tracer for interaction with the binding proteins. In addition, the level of cross-reactivity of binding proteins with the phosphoinositides used as enzyme substrates should be minimal. To examine the suitability of these phosphoinositide binding proteins for this application, competition assays were performed using optimal amounts of lipid binding proteins and fluorescent tracers, mixed with increasing amounts of diC8-phosphoinositide competitors.
The sensitivity of this approach for detecting conversion of PI(4,5)P2 to PI(3,4,5)P3 was evaluated using GST-GRP1-PH protein and FAM and BODIPY®-TMR labeled tracers. Competition assays in which both diC8-PI(3,4,5)P3 and diC8-PI(4,5)P2 were added at increasing concentrations were performed.

[1] = tested on: PI(4,5)P2-specific LRP derived from PLCδ; assay: AlphaScreen binding and competition with PI(4,5)P2-specific LRP; details: biotinylated PI(4,5)P2 and PLCδ kept constant
Method: The present invention provides ALPHAScreen™ assays to detect specific binding and competition of phosphoinositide diphosphates using antibodies or LRPs. This approach can be used in competitive assays for the detection of PI(3,4)P2 and PI(4,5)P2 produced by lipid phosphatase or kinase activity. […] Increasing amounts of unlabeled PI(4,5)P2 or PI(3,4,5)P3 were added while levels of PLCδ and PI(4,5)P2 were kept constant. PI(4,5)P2 competition is approximately 90-fold greater than PI(3,4,5)P3 competition, indicating a high degree of specificity for recognition of PI(4,5)P2.

SMQ-Grp1 = molecular target: T2, SMQ-Grp1 (Homo sapiens, UniProt O43739); assay: Competitive dequenching fluorogenic assay with SMQ-Grp1; type: binding; details: increasing amounts of competitor, compared with diC8 PI(3,4,5)P3
T2 construct: small molecular quencher (Dabcyl, QSY 7 or QSY 9); made in house
T2 sequence (O43739 1-400): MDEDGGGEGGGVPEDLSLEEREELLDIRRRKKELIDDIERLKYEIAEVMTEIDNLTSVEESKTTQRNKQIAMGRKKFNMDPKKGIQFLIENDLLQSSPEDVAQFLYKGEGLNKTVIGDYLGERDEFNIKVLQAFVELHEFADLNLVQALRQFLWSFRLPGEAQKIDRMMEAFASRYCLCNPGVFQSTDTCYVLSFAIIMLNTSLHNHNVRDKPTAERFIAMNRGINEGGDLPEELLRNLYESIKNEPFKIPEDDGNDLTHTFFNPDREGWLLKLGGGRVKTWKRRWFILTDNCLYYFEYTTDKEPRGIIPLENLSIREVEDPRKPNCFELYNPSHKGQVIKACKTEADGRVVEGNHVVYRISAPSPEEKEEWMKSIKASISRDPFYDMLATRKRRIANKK
Method: The fluorogenic assays were set up in a black 384-well plate. The combination of 100 nM, 10 nM and 1 nM of SMQ-Grp1 conjugate was incubated with 100 nM, 50 nM and 25 nM BODIPY®-FL-labeled PI(3,4,5)P3. The total assay volume was […] in a PBS buffer at a pH of 7.5. The assay mixture was incubated in the dark for one hour at 25° C. The plate was then transferred to an Alpha Fusion plate reader and read with a 485/520 nm filter. […] For example, if BODIPY®-FL-PI(3,4,5)P3 is fixed at 25 nM, increasing the amount of Dabcyl-Grp1 conjugate (from 1 nM to 100 nM) caused decreasing amounts of fluorescence (FIG. 24). Similar fluorescence quenching profiles were shown for QSY 7-Grp1 and QSY 9-Grp1.
The quenching effects of BODIPY®-FL-PI(3,4,5)P3 by SMQ-Grp1 were specific. diC8 PI(3,4,5)P3 as a competitor antagonized the fluorescence quenching effect of BODIPY®-FL-PI(3,4,5)P3 by SMQ-Grp1 in a dose-response manner. diC8 PI(3,4,5)P3 was used at varying concentrations to compete with BODIPY®-FL-PI(3,4,5)P3 for binding to the SMQ-Grp1 conjugate. […] In each bar graph in FIG. 25, from the right to the left, the bars show the fluorescence reading of PBS as the background, the diC8 PI(3,4,5)P3 only, the SMQ-Grp1 conjugate only, BODIPY®-FL-PI(3,4,5)P3 only, Grp1-SMQ plus BODIPY®-FL-PI(3,4,5)P3, Grp1-SMQ plus BODIPY®-FL-PI(3,4,5)P3 with 10 pmol of diC8 PI(3,4,5)P3 as the competitor, Grp1-SMQ plus BODIPY®-FL-PI(3,4,5)P3 with 100 pmol of diC8 PI(3,4,5)P3 as the competitor, Grp1-SMQ plus BODIPY®-FL-PI(3,4,5)P3 with 1000 pmol of diC8 PI(3,4,5)P3 as the competitor, and Grp1-SMQ plus BODIPY®-FL-PI(3,4,5)P3 with 10000 pmol of diC8 PI(3,4,5)P3 as competitor. […]
Fluorogenic assays were also used to compare competition of diC8 PI(3,4,5)P3 to PI(4,5)P2 and PI(3)P. With increasing amounts of PI(3,4,5)P3 the signal begins to increase, indicating competition, whereas as PI(4,5)P2 and PI(3)P show little change, indicating less competition. […] The production (or presence) of PI(3,4,5)P3 in this assay system corresponds to the elevation of the fluorescence signal.

Chain of recombinant PI 3-Kinaseα (P42336 whole entry): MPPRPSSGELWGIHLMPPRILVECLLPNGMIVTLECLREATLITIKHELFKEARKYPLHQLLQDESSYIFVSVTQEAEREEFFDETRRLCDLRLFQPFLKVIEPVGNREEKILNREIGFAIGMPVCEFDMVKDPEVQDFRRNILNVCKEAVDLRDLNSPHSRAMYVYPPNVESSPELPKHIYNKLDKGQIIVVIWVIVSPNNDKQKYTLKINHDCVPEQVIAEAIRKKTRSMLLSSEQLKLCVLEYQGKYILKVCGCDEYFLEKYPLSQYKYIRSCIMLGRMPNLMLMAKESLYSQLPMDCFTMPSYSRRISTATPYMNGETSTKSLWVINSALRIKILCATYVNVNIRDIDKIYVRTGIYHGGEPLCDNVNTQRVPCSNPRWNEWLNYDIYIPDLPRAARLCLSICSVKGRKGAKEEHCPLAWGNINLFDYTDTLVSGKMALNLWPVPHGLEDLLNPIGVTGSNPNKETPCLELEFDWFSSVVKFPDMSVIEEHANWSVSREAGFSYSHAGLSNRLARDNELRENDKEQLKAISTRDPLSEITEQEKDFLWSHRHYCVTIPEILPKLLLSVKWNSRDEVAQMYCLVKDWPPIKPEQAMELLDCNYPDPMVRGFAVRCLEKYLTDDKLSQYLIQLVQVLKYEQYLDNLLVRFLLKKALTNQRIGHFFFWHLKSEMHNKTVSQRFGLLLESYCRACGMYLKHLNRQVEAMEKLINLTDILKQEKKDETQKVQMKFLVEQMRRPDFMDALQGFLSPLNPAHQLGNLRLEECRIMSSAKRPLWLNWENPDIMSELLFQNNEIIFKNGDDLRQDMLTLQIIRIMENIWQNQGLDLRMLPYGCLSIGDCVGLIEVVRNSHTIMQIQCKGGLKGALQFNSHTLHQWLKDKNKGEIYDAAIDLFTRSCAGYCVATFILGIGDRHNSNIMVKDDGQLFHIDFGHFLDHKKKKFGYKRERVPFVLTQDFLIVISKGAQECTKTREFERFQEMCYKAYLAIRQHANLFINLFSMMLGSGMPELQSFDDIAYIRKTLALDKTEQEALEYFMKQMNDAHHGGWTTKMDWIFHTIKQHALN
Chain of recombinant PI 3-Kinaseα (P27986 whole entry partner): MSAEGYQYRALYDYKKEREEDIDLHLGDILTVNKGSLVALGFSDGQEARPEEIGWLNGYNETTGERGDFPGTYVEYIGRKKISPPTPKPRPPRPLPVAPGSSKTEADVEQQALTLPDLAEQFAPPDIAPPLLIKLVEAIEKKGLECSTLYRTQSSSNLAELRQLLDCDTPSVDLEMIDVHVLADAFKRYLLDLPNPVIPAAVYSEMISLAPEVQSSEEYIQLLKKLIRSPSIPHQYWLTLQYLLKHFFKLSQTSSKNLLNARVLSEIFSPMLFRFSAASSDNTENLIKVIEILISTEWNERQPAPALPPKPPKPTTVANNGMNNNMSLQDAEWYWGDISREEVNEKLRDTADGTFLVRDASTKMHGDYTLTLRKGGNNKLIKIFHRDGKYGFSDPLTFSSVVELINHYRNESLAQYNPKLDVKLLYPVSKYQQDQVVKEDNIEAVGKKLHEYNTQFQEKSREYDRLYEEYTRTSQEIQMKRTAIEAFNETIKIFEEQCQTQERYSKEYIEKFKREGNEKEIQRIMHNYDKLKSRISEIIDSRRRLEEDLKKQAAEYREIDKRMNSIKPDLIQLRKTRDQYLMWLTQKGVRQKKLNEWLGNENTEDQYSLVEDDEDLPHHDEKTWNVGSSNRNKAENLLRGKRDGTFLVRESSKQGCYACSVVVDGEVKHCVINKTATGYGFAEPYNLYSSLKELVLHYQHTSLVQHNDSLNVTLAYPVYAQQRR

Row | Compound | Km (recombinant PI 3-Kinaseα) [µM] | effect on interaction of binding protein with fluorescent tracers (GST-GRP1-PH) | competition relative to PI(3,4,5)P3 competition [1] | change of fluorescence signal (competition) (SMQ-Grp1)
1 | CCCCCCCC(=O)OC[C@H](COP(=O)(O)O[C@@H]1[C@H](O)[C@H](O)[C@@H](OP(=O)(O)O)[C@H](OP(=O)(O)O)[C@H]1O)OC(=O)CCCCCCC [diC8-PI(4,5)P2] | ~3 | minimal effect |  | 
2 | PI(4,5)P2 |  |  | approximately 90 fold | little change
